# Source: patent US9005963B2, “Amino acid sequences directed against cellular receptors for viruses and bacteria” (Ablynx N.V., priority 2008, dated 2015)
# B1: 237D2: selected Nanobody, SEQ ID NO: 241 (protein)
# VHH: EVQLVESGGGLVQPGGSLRLSCAASGFTFDDYAMSWVRQAPGKGLEWVSAISWNGGSTDYADSVKGRFTISRDNAKNTLYLQMNSLKSEDTAEYYCARDQGPFYSGTYYYTRQYGYRGQGTQVTVSS
# modifications: Nanobodies
# Assays:
# X4 HIV-1 NL4.3 [1] = assay: HIV-1 infection assay MT-4/NL4.3 (cytopathic effect, MTS); type: cell-based; conditions: Human immunodeficiency virus 1; MT-4/NL4.3 exp. 1
# X4 HIV-1 NL4.3 [2] = assay: HIV-1 infection assay PBMC/NL4.3 (p24 Ag ELISA); type: cell-based; conditions: Human immunodeficiency virus 1, PBMC
# Procedure: (§1) The CXCR4-using (X4) HIV-1 molecular clone NL4.3 was obtained from the National Institutes of Health NIAID AIDS Reagent program (Bethesda, Md.), the CCR5-using (R5) HIV-1 strain BaL was obtained from the Medical Research Council AIDS reagent project (Herts, UK). […] The MT-4 cells were seeded out in 96-well plate and the U87 cells in 24-well plates. The test compounds were added at different concentrations together with HIV-1 and the plates were maintained at 37° C. in 10% CO2. Cytopathic effect induced by the virus was monitored by daily microscopic evaluation of the virus-infected cell cultures. […] The absorbance was then measured spectrophotometrically at 490 nm with a 96-well plate reader (Molecular Devices, Sunnyvale, Calif.) and compared with four cell control replicates (cells without virus and drugs) and four virus control wells (virus-infected cells without drugs).
# (§2) Peripheral blood mononuclear cells (PBMCs) from healthy donors were isolated by density centrifugation (Lymphoprep; Nycomed Pharma, AS Diagnostics, Oslo, Norway) and stimulated with phytohemagglutin (PHA) (Sigma Chemical Co., Bornem Belgium) for 3 days. The activated cells (PHA-stimulated blasts) were washed with PBS and viral infections were performed as described previously (Schols D, Struyf S, Van Damme J, Este J A, Henson G, De Clercq E. Inhibition of T-tropic HIV strains by selective antagonization of the chemokine receptor CXCR4. J Exp Med 1997; 186:1383-1388). At 8-10 days after the start of the infection, viral p24 Ag was detected in the culture supernatant by an enzyme-linked immunosorbent assay (Perkin Elmer, Brussels, Belgium).
# (§3) The anti-HIV-1 potencies of NANOBODIES on the X4 HIV-1 clone NL4.3 or primary virus strains UG270 (X4, Clade D), CI#17 (X4, clade B), the R5 HIV-1 strain BaL or the R5/X4 HIV-1 HE strain in MT-4, U87.CD4.CXCR4, U87.CD4.CCR5 and/or phytohemagglutin-stimulated PBMCs from different donors were determined by measuring the cytopathic effect of HIV-1 (in MT-4 and U87 cell lines) microscopically and by tetrazolium-based colorimetric evaluation or by quantification of the viral p24 antigen production in the culture supernatant (PBMCs) as described in detail. Primary virus strains were grown 1 or 2 times in PBMC only.
# Peripheral blood mononuclear cells (PBMCs) from healthy donors were isolated by density centrifugation (Lymphoprep; Nycomed Pharma, AS Diagnostics, Oslo, Norway) and stimulated with phytohemagglutin for 3 days. […] At 8-10 days after the start of the infection, viral p24 Ag was detected in the culture supernatant by an enzyme-linked immunosorbent assay (Perkin Elmer, Brussels, Belgium).
# CXCR4 [3] = biological target: T1, CXCR4 (Homo sapiens, UniProt P61073); conditions: 3 μM; control experiment; membranes from HEK293T cells transiently expressing CXCR4
# T1 sequence (P61073 whole entry): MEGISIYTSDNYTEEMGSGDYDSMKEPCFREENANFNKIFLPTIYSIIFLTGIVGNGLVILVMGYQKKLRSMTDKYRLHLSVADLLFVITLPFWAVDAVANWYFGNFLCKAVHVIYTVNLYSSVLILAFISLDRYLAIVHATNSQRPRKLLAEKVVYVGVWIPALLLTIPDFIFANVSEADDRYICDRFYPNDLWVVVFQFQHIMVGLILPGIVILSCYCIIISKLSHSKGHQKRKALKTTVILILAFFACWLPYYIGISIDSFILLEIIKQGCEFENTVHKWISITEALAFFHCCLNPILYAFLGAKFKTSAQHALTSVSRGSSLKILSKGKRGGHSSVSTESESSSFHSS
# [4] = system: HIV-1 UG270 (X4, Clade D); assay: HIV-1 infection assay PBMC/primary isolate UG270 (p24 Ag ELISA); type: cell-based; conditions: Human immunodeficiency virus 1, PBMC
# Procedure: as §3
# as §2, with “phytohemagglutin” for “phytohemagglutin (PHA) (Sigma Chemical Co., Bornem Belgium)”, “cells” for “cells (PHA-stimulated blasts)”, “et al. (1997)” for “Struyf S, Van Damme J, Este J A, Henson G, De Clercq E.”, “Med” for “Med 1997;”
# CXCR4 [5] = biological target: T1, CXCR4; assay: Competition binding with [125I]-238D4 on membranes from HEK293T cells transiently expressing CXCR4; parameters: expressed in transfected cells; host or cells: HEK293T, transient (pcDNA3.1-CXCR4); conditions: for displacement of [125I]-238D4 (in words): 238C5 only at high concentrations (≧100 nM); for Displacem. (%) of [125I]-238D4: maximal displacement, a: no significant displacement at 0.5 μM, b: displacement at 0.5 μM
# Procedure: (§4) Membranes from HEK293T cells transiently expressing CXCR3 or CXCR4 were prepared 48 h after transfection as follows. Cells were washed and scraped from the cell culture dishes with ice-cold PBS containing 1 mm EDTA. The scraped cells were pelleted at 1500×g for 10 min at 4° C. The pellet was washed and then resuspended in ice-cold membrane buffer (15 mM Tris, pH 7.5, 1 mM EGTA, 0.3 mM EDTA, and 2 mM MgCl2). The cell suspension was homogenized by 10 strokes at 1200 rpm using a Teflon-glass homogenizer and rotor and further subjected to three freeze-thaw cycles using liquid nitrogen. Membranes were separated by centrifugation at 40,000 g for 25 min at 4° C. The membrane pellet was washed and resuspended in ice-cold Tris-sucrose buffer (20 mM Tris, pH 7.4, and 250 mM sucrose) and frozen in liquid nitrogen. The total protein was determined using a Bradford assay (Bio-Rad).
# (§5) Membranes were then harvested over polyethylenimine (0.5%)-treated Whatman GF/C filter plates and washed three times with ice cold binding buffer containing 500 mM NaCl. Plates were counted by liquid scintillation.
# CXCR4 [6] = biological target: T1, CXCR4; assay: Competition binding with [125I]-238D2 on membranes from HEK293T cells transiently expressing CXCR4; parameters: expressed in transfected cells; host or cells: HEK293T, transient (pcDNA3.1-CXCR4); conditions: for displacement of [125I]-238D2 (in words): 238C5 only at high concentrations (≧100 nM); for Displacem. (%) of [125I]-238D2: maximal displacement, a: no significant displacement at 0.5 μM, b: displacement at 0.5 μM
# Procedure: as §4, §5
# [7] = system: HIV-1 CI#17 (X4, clade B); assay: HIV-1 infection assay PBMC/primary isolate CI#17 (p24 Ag ELISA); type: cell-based; conditions: Human immunodeficiency virus 1, PBMC
# Procedure: as §3
# as §2, with “phytohemagglutin” for “phytohemagglutin (PHA) (Sigma Chemical Co., Bornem Belgium)”, “cells” for “cells (PHA-stimulated blasts)”, “et al. (1997)” for “Struyf S, Van Damme J, Este J A, Henson G, De Clercq E.”, “Med” for “Med 1997;”
# CXCR4 [8] = biological target: T1, CXCR4; assay: Competition binding with [125I]-CXCL12 on membranes from HEK293T cells transiently expressing CXCR4; parameters: expressed in transfected cells; host or cells: HEK293T, transient (pcDNA3.1-CXCR4); displacement of specifically bound [125I]-CXCL12 (in words): dose or concentration left out as unconfirmed; conditions: for Displacem. (%) of [125I]-CXCL12: maximal displacement, a: no significant displacement at 0.5 μM, b/c(B-6): maximum not reached, displacement at 0.5 μM
# Procedure: as §4
# Membranes were then harvested over polyethylenimine (0.5%)-treated Whatman GF/C filter plates and washed three times with ice cold binding buffer containing 500 mM NaCl. Plates were counted by liquid scintillation. […]
# R5 HIV-1 BaL [9] = assay: HIV-1 infection assay PBMC/BaL (p24 Ag ELISA); type: cell-based
# Procedure: as §1, §2, §3
# as §2, with “phytohemagglutin” for “phytohemagglutin (PHA) (Sigma Chemical Co., Bornem Belgium)”, “cells” for “cells (PHA-stimulated blasts)”, “et al. (1997)” for “Struyf S, Van Damme J, Este J A, Henson G, De Clercq E.”, “Med” for “Med 1997;”
# R5 HIV-1 BaL [10] = assay: HIV-1 infection assay U87.CD4.CCR5/BaL (MTS); type: cell-based; conditions: read-out: Anti-HIV-1 activity (IC50)
molecule,measurement,setting,value
c1cc(CN2CCCNCCNCCCNCC2)ccc1CN1CCCNCCNCCCNCC1 [AMD3100],IC50,X4 HIV-1 NL4.3 [1],0.0064 µg/mL
same,IC90,X4 HIV-1 NL4.3 [1],> 0.04 µg/mL
same,IC50,X4 HIV-1 NL4.3 [2]; PBMC + NL4.3 donor 1,0.0011 µg/mL
same,IC90,X4 HIV-1 NL4.3 [2]; PBMC + NL4.3 donor 1,0.0099 µg/mL
same,IC50,X4 HIV-1 NL4.3 [2]; PBMC + NL4.3 donor 2,> 0.04 µg/mL
same,IC90,X4 HIV-1 NL4.3 [2]; PBMC + NL4.3 donor 2,> 0.04 µg/mL
same,displacement of [125I]-CXCL12,CXCR4 [3],full
same,IC50,[4]; PBMC + UG270 donor 1,0.0036 µg/mL
same,IC90,[4]; PBMC + UG270 donor 1,0.0154 µg/mL
same,IC50,[4]; PBMC + UG270 donor 2,0.0179 µg/mL
same,IC90,[4]; PBMC + UG270 donor 2,0.0341 µg/mL
same,displacement of [125I]-238D4 (in words),CXCR4 [5],displaced
same,Displacem. (%) of [125I]-238D4,CXCR4 [5],99 ± 4%
same,displacement of [125I]-238D2 (in words),CXCR4 [6],displaced
same,Displacem. (%) of [125I]-238D2,CXCR4 [6],102 ± 1%
same,IC50,[7]; PBMC + CI#17 donor 1,0.0121 µg/mL
same,IC90,[7]; PBMC + CI#17 donor 1,> 0.04 µg/mL
same,IC50,[7]; PBMC + CI#17 donor 2,0.0149 µg/mL
same,IC90,[7]; PBMC + CI#17 donor 2,0.0379 µg/mL
same,Displacem. (%) of [125I]-CXCL12,CXCR4 [8],94 ± 2%
maraviroc,IC50,R5 HIV-1 BaL [9]; PBMC + BaL donor 1,0.0015 µg/mL
same,IC90,R5 HIV-1 BaL [9]; PBMC + BaL donor 1,0.0273 µg/mL
same,IC50,R5 HIV-1 BaL [9]; PBMC + BaL donor 2,0.0008 µg/mL
same,IC90,R5 HIV-1 BaL [9]; PBMC + BaL donor 2,0.0131 µg/mL
same,IC50,"R5 HIV-1 BaL [9]; read-out: Anti-HIV-1 activity (IC50), PBMC/BaL",3.13 nM
same,IC50,R5 HIV-1 BaL [10],0.72 nM
B1,displacement of [125I]-238D4 (in words),CXCR4 [5],unable to inhibit
same,pKi ([125I]-238D4),CXCR4 [5]; HEK293T-CXCR4 membranes,<6.3
same,Displacem. (%) of [125I]-238D4,CXCR4 [5],0^a %
same,displacement of [125I]-238D2 (in words),CXCR4 [6],unable to inhibit
same,pKi ([125I]-238D2),CXCR4 [6]; HEK293T-CXCR4 membranes,<6.3
same,Displacem. (%) of [125I]-238D2,CXCR4 [6],0^a %
same,pKi ([125I]-CXCL12),CXCR4 [8]; HEK293T-CXCR4 membranes,<6.3
same,Displacem. (%) of [125I]-CXCL12,CXCR4 [8],0^a %
same,displacement of specifically bound [125I]-CXCL12 (in words),CXCR4 [8]; purified Nanobodies,unable to displace
